Measured values published in US20140051679A1, “KINASE INHIBITORS AND METHOD OF TREATING CANCER WITH SAME” (UNIVERISTY HEALTH NETWORKS, priority 2011, published 2014).

Assays:
[1] = system: HT29 colon cancer cells; test: Cell growth inhibition, Sulforhodamine B assay, HT29; format: cell-based; conditions: Homo sapiens, HT-29, 120 h, 5 days culture, SRB assay, read-out: Cell Line GI50 Range HT29
[2] = system: Colon tumor initiating cells (TICs), 12 colon; test: Colon tumor-initiating cell growth inhibition (Alamar Blue); format: cell-based; conditions: 216 h, 9 days, read-out: GI50 range 12 colon
[3] = system: HCT116 colon cancer cells; test: Cell growth inhibition, Sulforhodamine B assay, HCT116; format: cell-based; conditions: Homo sapiens, HCT-116, 120 h, 5 days culture, SRB assay, read-out: Cell Line GI50 Range HCT116
[4] = target: T1, human TTK (Homo sapiens, UniProt P33981); test: TTK inhibition assay (indirect ELISA); format: biochemical; conditions: GST-TTK 0.68 nM, 16 μM ATP; read-out: IC50 Ranges TTK
T1 construct: amino terminal GST fusion of full length human TTK; purchased Invitrogen
T1 sequence (P33981 1-857): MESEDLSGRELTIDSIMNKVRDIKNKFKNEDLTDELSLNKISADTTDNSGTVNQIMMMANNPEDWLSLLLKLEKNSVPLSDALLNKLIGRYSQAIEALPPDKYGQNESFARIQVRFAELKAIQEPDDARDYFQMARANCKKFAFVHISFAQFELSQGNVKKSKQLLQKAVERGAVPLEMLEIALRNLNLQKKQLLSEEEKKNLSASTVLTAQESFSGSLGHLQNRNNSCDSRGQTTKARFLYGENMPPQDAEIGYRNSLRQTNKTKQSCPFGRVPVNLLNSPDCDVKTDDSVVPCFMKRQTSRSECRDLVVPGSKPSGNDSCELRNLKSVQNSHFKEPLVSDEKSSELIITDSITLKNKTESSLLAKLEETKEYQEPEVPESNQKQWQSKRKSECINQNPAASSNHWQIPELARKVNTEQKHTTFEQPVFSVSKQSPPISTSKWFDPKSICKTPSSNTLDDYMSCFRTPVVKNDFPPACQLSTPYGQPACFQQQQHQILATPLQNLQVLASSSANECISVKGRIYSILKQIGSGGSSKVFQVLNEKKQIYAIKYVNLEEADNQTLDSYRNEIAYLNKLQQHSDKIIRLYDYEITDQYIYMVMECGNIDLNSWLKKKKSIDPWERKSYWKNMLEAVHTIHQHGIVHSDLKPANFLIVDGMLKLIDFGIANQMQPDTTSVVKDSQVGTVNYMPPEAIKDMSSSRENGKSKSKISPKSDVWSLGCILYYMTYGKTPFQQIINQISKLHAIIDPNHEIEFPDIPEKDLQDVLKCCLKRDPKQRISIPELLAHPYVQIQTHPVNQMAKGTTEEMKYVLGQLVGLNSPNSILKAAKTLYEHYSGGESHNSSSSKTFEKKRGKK

[5] = system: OVCAR-3 ovarian cancer cells; test: Cell growth inhibition, Sulforhodamine B assay, OVCAR-3; format: cell-based; conditions: Homo sapiens, 120 h, 5 days culture, SRB assay, read-out: Cell Line GI50 Range OVCAR-3
[6] = system: MDA-MB-231 breast cancer cells; test: Cell growth inhibition, Sulforhodamine B assay, MDA-MB-231; format: cell-based; conditions: Homo sapiens, 120 h, 5 days culture, SRB assay, read-out: Cell Line GI50 Range MDA-MB-231
[7] = target: T2, human PLK4 (Homo sapiens, UniProt O00444); test: PLK4 inhibition assay (indirect ELISA); format: biochemical; conditions: GST-PLK4 4 nM, 15 μM ATP; read-out: IC50 Ranges PLK4
T2 construct: amino terminal GST fusion of residues 1-391 of human PLK4; made in house; host or cells: E. coli
T2 sequence (O00444 1-391): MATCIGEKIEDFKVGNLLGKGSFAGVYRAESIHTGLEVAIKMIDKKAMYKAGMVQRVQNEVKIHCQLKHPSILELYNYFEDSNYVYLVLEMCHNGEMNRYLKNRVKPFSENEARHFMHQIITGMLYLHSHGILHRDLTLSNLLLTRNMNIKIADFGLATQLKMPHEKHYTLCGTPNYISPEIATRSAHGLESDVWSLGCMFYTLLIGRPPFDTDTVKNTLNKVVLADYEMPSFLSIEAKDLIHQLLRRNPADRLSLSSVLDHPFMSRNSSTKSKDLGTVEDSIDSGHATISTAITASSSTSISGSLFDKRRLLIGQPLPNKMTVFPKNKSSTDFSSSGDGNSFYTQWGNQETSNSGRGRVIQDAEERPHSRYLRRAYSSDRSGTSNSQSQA
Procedure, shortened: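 Dephosphorylated GST-tagged human PLK4 (residues 1-391, E. coli), 4 nM, preincubated 15 min with compound, then reacted 30 min with 15 μM ATP on MBP-coated plates (50 mM HEPES pH 7.5, 10 mM MgCl2, 0.01% Brij 35). Phospho-MBP detected by antibody ELISA at 450 nm. Tested at 10 μM or 10-point titrations; IC50 from 4-parameter logistic fit.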

[8] = system: Ovarian TICs, 2393A ovarian; test: Ovarian tumor-initiating cell growth inhibition (Alamar Blue); format: cell-based; conditions: 144 h, 6 days, read-out: GI50 range 2393A ovarian
[9] = system: MDA-MB-468 breast cancer cells; test: Cell growth inhibition, Sulforhodamine B assay, MDA-MB-468; format: cell-based; conditions: Homo sapiens, 120 h, 5 days culture, SRB assay, read-out: Cell Line GI50 Range MDA-MB-468
[10] = system: PA-1 ovarian cancer cells; test: Cell growth inhibition, Sulforhodamine B assay, PA-1; format: cell-based; conditions: 120 h, 5 days culture, SRB assay, read-out: Cell Line GI50 Range PA-1
[11] = target: T3, Aurora B (Homo sapiens, UniProt Q96GD4); test: Aurora B inhibition assay (Z-Lyte); format: biochemical; conditions: 28 nM Aurora B, 128 μM ATP; read-out: IC50 Ranges Aurora B
T3 construct: purchased Invitrogen PV3970
T3 sequence (Q96GD4 whole entry): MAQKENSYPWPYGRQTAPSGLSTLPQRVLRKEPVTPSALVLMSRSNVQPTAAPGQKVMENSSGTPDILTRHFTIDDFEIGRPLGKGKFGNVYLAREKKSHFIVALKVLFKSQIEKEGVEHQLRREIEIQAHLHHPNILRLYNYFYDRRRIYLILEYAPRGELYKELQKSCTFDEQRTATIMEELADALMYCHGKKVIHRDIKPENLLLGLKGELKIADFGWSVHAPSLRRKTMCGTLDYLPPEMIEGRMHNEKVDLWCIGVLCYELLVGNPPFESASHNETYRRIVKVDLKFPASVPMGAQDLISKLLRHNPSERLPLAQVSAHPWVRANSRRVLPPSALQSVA
Description: Aurora B inhibition was determined using the Z-Lyte assay kit from Invitrogen. The assay was performed using the recommended manufacturer's instructions with 128 μM ATP and 28 nM Aurora B (Invitrogen cat #PV3970). The % inhibition values were determined according to the manufacturer's directions and IC50 values were obtained using a non-linear 4 point logistic curve fit (XLfit4, IDBS)

SMILES | GI50 [1] [µM] | GI50 [2] [µM] | GI50 [3] [µM] | IC50 [4] [µM] | GI50 [5] [µM] | GI50 [6] [µM] | IC50 [7] [µM] | GI50 [8] [µM] | GI50 [9] [µM] | GI50 [10] [µM] | IC50 [11] [µM]
Cc1ccccc1C(NC(=O)c1ccc2[nH]nc(-c3ccc(OC4CCN(C)CC4)cc3)c2c1)C1CC1 (stereo not drawn) [Example A132, N-(cyclopropyl(o-tolyl)methyl)-3-(4-((1-methylpiperidin-4-yl)oxy)phenyl)-1H-indazole-5-carboxamide] | ≤ 5 | ≤ 5 | ≤ 5 | ≤ 5 | ≤ 5 | ≤ 5 | ≤ 5 | ≤ 5 | ≤ 5 | ≤ 5 | ≤ 5
Cc1ccccc1C(C(=O)Nc1ccc2[nH]nc(-c3ccc(OC4CCN(C)CC4)cc3)c2c1)N1CCCC1 (stereo not drawn) [Example A133, N-(3-(4-((1-methylpiperidin-4-yl)oxy)phenyl)-1H-indazol-5-yl)-2-(pyrrolidin-1-yl)-2-(o-tolyl)acetamide] | ≤ 5 | ≤ 5 | ≤ 5 | ≤ 5 | ≤ 5 | ≤ 5 | ≤ 5 | ≤ 5 | ≤ 5 | ≤ 5 | ≤ 5
C[C@@H](NC(=O)c1ccc2[nH]nc(-c3ccc(OC4CCN(C)CC4)cc3)c2c1)c1ccccc1F [Example A134, (R)—N-(1-(2-fluorophenyl)ethyl)-3-(4-((1-methylpiperidin-4-yl)oxy)phenyl)-1H-indazole-5-carboxamide] | ≤ 5 | ≤ 5 | ≤ 5 | ≤ 5 | 5 to 20 | ≤ 5 | ≤ 5 | ≤ 5 | ≤ 5 | ≤ 5 | ≤ 5
CN1CCC(Oc2ccc(-c3n[nH]c4ccc(C(=O)NC(c5ccccc5F)C5CC5)cc34)cc2)CC1 (stereo not drawn) [Example A136, N-(cyclopropyl(2-fluorophenyl)methyl)-3-(4-((1-methylpiperidin-4-yl)oxy)phenyl)-1H-indazole-5-carboxamide] | ≤ 5 | ≤ 5 | ≤ 5 | ≤ 5 | ≤ 5 | ≤ 5 | ≤ 5 | ≤ 5 | ≤ 5 | ≤ 5 | ≤ 5
CN1CCC(Oc2ccc(-c3n[nH]c4ccc(C(=O)N[C@H](CCO)c5ccccc5)cc34)cc2)CC1 [Example A137, (R)—N-(3-hydroxy-1-phenylpropyl)-3-(4-((1-methylpiperidin-4-yl)oxy)phenyl)-1H-indazole-5-carboxamide] | ≤ 5 | ≤ 5 | ≤ 5 | ≤ 5 | ≤ 5 | ≤ 5 | ≤ 5 | ≤ 5 | ≤ 5 | ≤ 5 | ≤ 5
CN1CCC(Oc2ccc(-c3n[nH]c4ccc(NC(=O)C(c5ccccc5)C5CC5)cc34)cc2)CC1 (stereo not drawn) [Example A138, 2-cyclopropyl-N-(3-(4-((1-methylpiperidin-4-yl)oxy)phenyl)-1H-indazol-5-yl)-2-phenylacetamide] | ≤ 5 | ≤ 5 | ≤ 5 | ≤ 5 | ≤ 5 | ≤ 5 | ≤ 5 | ≤ 5 | ≤ 5 | ≤ 5 | ≤ 5
CC(C)C(NC(=O)c1ccc2[nH]nc(-c3ccc(OC4CCN(C)CC4)cc3)c2c1)c1ccccc1Cl (stereo not drawn) [Example A144, N-(1-(2-chlorophenyl)-2-methylpropyl)-3-(4-((1-methylpiperidin-4-yl)oxy)phenyl)-1H-indazole-5-carboxamide] | ≤ 5 | ≤ 5 | ≤ 5 | ≤ 5 | ≤ 5 | ≤ 5 | ≤ 5 | ≤ 5 | ≤ 5 | ≤ 5 | ≤ 5
CN1CCC(Oc2ccc(-c3n[nH]c4ccc(C(=O)NC(c5cccs5)C5CC5)cc34)cc2)CC1 (stereo not drawn) [Example A147] | ≤ 5 | ≤ 5 | ≤ 5 | ≤ 5 | ≤ 5 | ≤ 5 | ≤ 5 | ≤ 5 | ≤ 5 | ≤ 5 | ≤ 5
CN1CCC(Oc2ccc(-c3n[nH]c4ccc(C(=O)NC(c5ccccc5Cl)C5CC5)cc34)cc2)CC1 (stereo not drawn) [Example A150, N-((2-chlorophenyl)(cyclopropyl)methyl)-3-(4-((1-methylpiperidin-4-yl)oxy)phenyl)-1H-indazole-5-carboxamide] | ≤ 5 | ≤ 5 | ≤ 5 | ≤ 5 | ≤ 5 | ≤ 5 | ≤ 5 | ≤ 5 | ≤ 5 | ≤ 5 | ≤ 5
COc1ccccc1C(NC(=O)c1ccc2[nH]nc(-c3ccc(OC4CCN(C)CC4)cc3)c2c1)C1CC1 (stereo not drawn) [Example A151, N-(cyclopropyl(2-methoxyphenyl)methyl)-3-(4-((1-methylpiperidin-4-yl)oxy)phenyl)-1H-indazole-5-carboxamide] | ≤ 5 | ≤ 5 | ≤ 5 | ≤ 5 | ≤ 5 | ≤ 5 | ≤ 5 | ≤ 5 | ≤ 5 | ≤ 5 | ≤ 5
COCCN1CCC(Oc2ccc(-c3n[nH]c4ccc(C(=O)N[C@H](c5ccsc5)C5CC5)cc34)cc2)CC1 [Example A154] | ≤ 5 | ≤ 5 | ≤ 5 | ≤ 5 | ≤ 5 | ≤ 5 | ≤ 5 | ≤ 5 | ≤ 5 | ≤ 5 | ≤ 5
O=C(NC(c1ccccc1)C1CC1)c1ccc2[nH]nc(-c3ccc(OC4CCN(C5COC5)CC4)cc3)c2c1 (stereo not drawn) [Example A157] | ≤ 5 | ≤ 5 | ≤ 5 | ≤ 5 | ≤ 5 | ≤ 5 | ≤ 5 | ≤ 5 | ≤ 5 | ≤ 5 | ≤ 5
